Measurements from patent publication US8975259B2, “Compositions and methods for inhibiting G protein signaling” (University of Rochester, priority 2007, dated 2015).

What was measured:
[1] = Toxicity on repeated daily dosing in animals; assay type: in vivo
[2] = tested on: GFP-PHAkt translocation (PI3Kγ activation) in HL60 cells; test: fMLP-dependent GFP-PH-Akt translocation in differentiated HL60 cells; assay type: cell-based, human; details: 10 μM compound; result in words
[3] = tested on: differentiated HL60 cells; test: GM-CSF-induced chemotaxis of differentiated HL60 cells (Boyden chamber); assay type: cell-based, human; details: 10 μM compound, 1 μM GM-CSF; result in words
Method: Differentiated HL60 cells (200 k) were pretreated with 10 μM concentrations of the indicated compound, challenged with 250 nM fMLP, and assayed for chemotaxis in a Boyden chamber for 1 h at 37° C. […] Chemotaxis was quantified as above by subtracting out background cells (0-10 cells) in the absence of chemoattractant to obtain total transmigrated cells (−100 cells GM-CSF+vehicle) and represented as the percentage of GM-CSF-treated control cells. No statistically significant difference from control was seen by ANOVA. […] Primary human neutrophils were isolated from whole blood to ≧80% purity. […] Chemotaxis was quantified as above by subtracting out background cells to obtain total transmigrated cells and represented as the percentage of fMLP-treated control cells. […]
Chemotaxis was assayed using a Boyden chamber (Neuro Probe, Gaithersburg, Md.) using 3-μm polyvinylpyrrolidone-free polycarbonate filters (Neuro Probe). […] Chemotactic HL60 cells were scored by counting three microscope fields and subtracting the number of cells from fMLP wells as background. […] For all the small molecules, effects of the compounds on chemokinesis was analyzed by measuring chemotaxis in the presence of 250 nM fMLP in both the upper and lower chambers of the Boyden Chamber and measuring changes in transwell migration. […]

PLCβ3 = test: Gβ1γ2-dependent activation of purified PLCβ3; assay type: biochemical; details: for effect on Gβ1γ2-dependent activation of PLCβ3: result in words
Method: (§1) Purified PLCβ2 (0.25 ng) was assayed in the presence (▴) or absence (▪) of 100 nM purified Gβ1γ2. […] Assays contained 10 ng of purified p101/p110 PI3Kγ heterodimer with or without 100 nM purified Gβ1γ2. Left panel: (▴) 100 nM Gβ1γ2 or (▪) no βγ. […] M119 or M201 and 25 nM purified GRK2 were added simultaneously to 250 nM biotinylated Gβ1γ2 (bGβ1γ2) immobilized on streptavidin agarose. GRK2 was detected with antibody to GRK2. Data are representative (mean ±SEM, except D) repeated at least three times each. […] 30 nM bGβ1γ2 was incubated with either 30 nM PLCβ2 or PLCβ3 in the presence or absence of M119 or M201 for 16 h at 4° C. before precipitation with avidin agarose and detection with PLCβ2,or Gβ antibodies. […] Same as 4E with PLCβ3.
(§2) The ability of NSC119910 analogs to selectively modulate activation PLC-β2 and -β3 was analyzed. In this assay, PLC-β2 and PLC-β3 were purified and PLC enzymatic activity was measured in the presence or absence of purified βy and in the presence or absence of analog.
(§3) Nevertheless, M119 and M201 were tested in in vitro reconstitution assays of Gβγ-dependent activation of PLCβ2, PLCβ3 and PI3Kγ and binding to GRK2. […] These are only two of multiple diverse compounds identified, indicating potential for multiple modes of Gβγ-dependent target modulation by these small molecules.

[4] = tested on: acute morphine antinociceptive tolerance in mice; test: Acute morphine antinociceptive tolerance (repeated i.c.v. dosing, tail-flick); assay type: in vivo, mouse
N-type Ca^2+ channels = test: Norepinephrine-dependent inhibition of N-type Ca2+ channels in rat superior cervical ganglion neurons (patch clamp); assay type: cell-based; details: initial analysis; result in words
Method: Norepinephrine inhibits N-type Ca^2+ channels through a Gβγ dependent mechanism in SCG neurons and activates GIRK channels when they are heterologously expressed. Neurons are pretreated with varying concentrations of compounds (either in the bath or included in the patch pipette), and NE dependent inhibition of N-type Ca^2+ channels are measured in the whole cell patch clamp configuration. […] This voltage dependence is diagnostic of Gβγ-mediated modulation. The “facilitation” ratio of the postpulse current to the prepulse current (during which inhibition is strong) provides a quantitative measure of the degree of Gβγ modulation. Uninhibited currents generally have a facilitation ratio around 1 so cells pretreated with compounds that inhibit Gβγ interactions with the channel causes the facilitation ratio to approach 1. The effects on responses to other receptors such as transfected μ-opioid receptors or endogenous M4 muscarinic receptors are also examined. GIRK channel regulation is assessed by microinjecting GIRK1/2 subunits in SCG neurons and measuring K^+ channel regulation by NE at varying concentrations of compound. Basal K^+ channel activity and Ca^2+ channel activity is assessed to look for non-specific effects of Gβγ blockers. […]

[5] = tested on: opioid-induced antinociception in mice; details: M119 100 nmol i.c.v. with morphine i.c.v.; Bonacci et al., 2006; cited from earlier work
PLCβ2 = test: Gβ1γ2-dependent activation of purified PLCβ2; assay type: biochemical
Method: as §1, §2, §3

PI3Kγ = test: Gβ1γ2-dependent activation of purified p101/p110 PI3Kγ; assay type: biochemical; details: for effect on Gβ1γ2-dependent activation of PI3Kγ: result in words
Method: as §1, §3

Row | Compound | toxicity in intact animals and histology of lung, liver, brain, heart and kidney ([1]; 10, 30 and 100 mg/kg/day daily injections, two weeks) | effect on fMLP-dependent translocation of GFP-PHAkt to the membrane [2] | effect on GM-CSF-induced chemotaxis [3] | toxicity ([1]; 100 mg/kg/day intraperitoneal, one week) | IC50 (PLCβ3; Table 19, effector IC50, read-out: PLCb3) | effect on Gβ1γ2-dependent activation of PLCβ3 (PLCβ3) | ED50 of morphine co-administered with M119 ([4]; 6 hr) | ED50 of morphine co-administered with M119 ([4]; time 0) | effect on NE dependent inhibition of N-type Ca^2+ channels (N-type Ca^2+ channels) | leftward shift / potentiation of morphine dose-response [5] | IC50 (PLCβ2; read-out: IC50 for attenuation of Gβ1γ2-dependent activation of PLCβ2) | IC50 (PI3Kγ; Table 19, effector IC50, read-out: PI 3-Kg) | effect on Gβ1γ2-dependent activation of PI3Kγ (PI3Kγ) | effect on Gβ1γ2-dependent activation of PLCβ2 (PLCβ2; result in words)
1 | O=C(O)c1ccccc1-c1c2ccc(=O)c(O)c-2oc2c(O)c(O)ccc12 (racemic) [Gallein] | nor any overt toxicity | inhibited | Neither M119 nor gallein blocked | – | – | – | – | – | – | – | – | – | – | –
2 | O=C(O)C1CCCCC1c1c2ccc(=O)c(O)c-2oc2c(O)c(O)ccc12 (stereo not drawn) [Compound M119, cyclohexanecarboxylic acid, 2-(4,5,6-trihydroxy-3-oxo-3H-xanthen-9-yl)-(9cl)] | – | inhibited | Neither M119 nor gallein blocked | no overt toxicity was observed | 3000 nM | attenuated | 0.22 nmol | 0.16 nmol | unaffected | 10 fold | 3000 nM | 8000 nM | attenuated | –
3 | O=C(O)C1CCCCC1c1c2ccc(=O)cc-2oc2cc(O)ccc12 (stereo not drawn) [Compound M119B] | – | – | – | – | – | did not have effects | – | – | – | – | – | – | did not have effects | did not have effects
